From the supplement of paper PMC11208160

Experiment: recombinant barcode read abundance after kanamycin selection (control-corrected) (log10(CPM+1)); higher = more efficient recombination; sequences stand for … in AGTGCAGAGAAAATCGGCCAGTTTTCTCTGCCTGCAGTCCGCATGCCGT…ATTTATGCAGCGGACTGCCTTTCTCCCAAAGTGATAAACCGGACAGTATCATGGACCGGTTTTCCCGGTAATCCGTATTTGCAAGGTTGGTTTCACT; site = the 11-nt target
Procedure, shortened: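 Targets and IS621 bridge RNA target-binding loops were paired in oligos, each with a promoter, a barcode and the J23119-driven first 104 bridge RNA bases. A vector carrying the remaining 73 bp and a T7-inducible recombinase received these by Gibson cloning, and the pool was co-electroporated into E. coli with a donor plasmid. Duplicate plates contained chloramphenicol/ampicillin LB agar (control) or chloramphenicol/ampicillin/kanamycin with 0.1 mM IPTG. Recombination efficiency comes from averaged, control-corrected counts per million of recombinant-junction barcodes, reported as log10(CPM+1).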
For “CGCGCCCCTTGGGTTCTAACCTGTTGCGGCA [CGCGCCCCTCC_LTGcore_CT_RTGcore_TG] (site CGCGCCCCTCC) (LTG core: CT, RTG core: TG)”, the “recombinant barcode read abundance (log10)” value was 0. For “CGCGCCCCTTGGGTTCTAACCTGTTGCGGGC [CGCGCCCCTCC_LTGcore_CT_RTGcore_GC] (site CGCGCCCCTCC) (LTG core: CT, RTG core: GC)”, the “recombinant barcode read abundance (log10)” value was 0.592. In the case of “CGCGCCCCTTGGGTTCTAACCTGTTGCGGTA [CGCGCCCCTCC_LTGcore_CT_RTGcore_TA] (site CGCGCCCCTCC) (LTG core: CT, RTG core: TA)”, the “recombinant barcode read abundance (log10)” value is reported as 0.602. For “CGCGCCCGATGGGTTCTAACCTGTTGCGGTC [CGCGCCCCTCC_LTGcore_GA_RTGcore_GA] (site CGCGCCCCTCC) (LTG core: GA, RTG core: GA)”, the “recombinant barcode read abundance (log10)” value was 0.158. With “CGCGCCCGGTGGGTTCTAACCTGTTGCGGAG [CGCGCCCCTCC_LTGcore_GG_RTGcore_CT] (site CGCGCCCCTCC) (LTG core: GG, RTG core: CT)” the “recombinant barcode read abundance (log10)” value was 0.557. For “CGCGCCCTATGGGTTCTAACCTGTTGCGGAG [CGCGCCCCTCC_LTGcore_TA_RTGcore_CT] (site CGCGCCCCTCC) (LTG core: TA, RTG core: CT)”, the “recombinant barcode read abundance (log10)” value was 0.334. In the case of “CGCGCCCTTTGGGTTCTAACCTGTTGCGGAG [CGCGCCCCTCC_LTGcore_TT_RTGcore_CT] (site CGCGCCCCTCC) (LTG core: TT, RTG core: CT)”, the “recombinant barcode read abundance (log10)” value is reported as 0.127. In the case of “CGGTCCCACTGGGTTCTAACCTGTTGCCAGT [CGGTCCCCTTG_LTGcore_AC_RTGcore_AC] (site CGGTCCCCTTG) (LTG core: AC, RTG core: AC)”, the “recombinant barcode read abundance (log10)” value is reported as 0.19. In the case of “CGGTCCCAGTGGGTTCTAACCTGTTGCCAAG [CGGTCCCCTTG_LTGcore_AG_RTGcore_CT] (site CGGTCCCCTTG) (LTG core: AG, RTG core: CT)”, the “recombinant barcode read abundance (log10)” value is reported as 0.0476. For “CGGTCCCATTGGGTTCTAACCTGTTGCCAAG [CGGTCCCCTTG_LTGcore_AT_RTGcore_CT] (site CGGTCCCCTTG) (LTG core: AT, RTG core: CT)”, the “recombinant barcode read abundance (log10)” value was 1.07. In the case of “CGGTCCCCCTGGGTTCTAACCTGTTGCCAAG [CGGTCCCCTTG_LTGcore_CC_RTGcore_CT] (site CGGTCCCCTTG) (LTG core: CC, RTG core: CT)”, the “recombinant barcode read abundance (log10)” value is reported as 0.189. In the case of “CGGTCCCCTTGGGTTCTAACCTGTTGCCATG [CGGTCCCCTTG_LTGcore_CT_RTGcore_CA] (site CGGTCCCCTTG) (LTG core: CT, RTG core: CA)”, the “recombinant barcode read abundance (log10)” value is reported as 1.6. In the case of “CGGTCCCGTTGGGTTCTAACCTGTTGCCAAC [CGGTCCCCTTG_LTGcore_GT_RTGcore_GT] (site CGGTCCCCTTG) (LTG core: GT, RTG core: GT)”, the “recombinant barcode read abundance (log10)” value is reported as 0.229. In the case of “CGGTCCCTCTGGGTTCTAACCTGTTGCCAAG [CGGTCCCCTTG_LTGcore_TC_RTGcore_CT] (site CGGTCCCCTTG) (LTG core: TC, RTG core: CT)”, the “recombinant barcode read abundance (log10)” value is reported as 0.355. In the case of “CGGTCCCTCTGGGTTCTAACCTGTTGCCAGA [CGGTCCCCTTG_LTGcore_TC_RTGcore_TC] (site CGGTCCCCTTG) (LTG core: TC, RTG core: TC)”, the “recombinant barcode read abundance (log10)” value is reported as 0.174. In the case of “CGGTCCCTGTGGGTTCTAACCTGTTGCCACA [CGGTCCCCTTG_LTGcore_TG_RTGcore_TG] (site CGGTCCCCTTG) (LTG core: TG, RTG core: TG)”, the “recombinant barcode read abundance (log10)” value is reported as 0.175. For “CGGTCCCTTTGGGTTCTAACCTGTTGCCAAG [CGGTCCCCTTG_LTGcore_TT_RTGcore_CT] (site CGGTCCCCTTG) (LTG core: TT, RTG core: CT)”, the “recombinant barcode read abundance (log10)” value was 0.0132. With “GAGCCCACTTGGGTTCTAACCTGTTGCCTAT [GAGCCCACTAG_LTGcore_CT_RTGcore_AT] (site GAGCCCACTAG) (LTG core: CT, RTG core: AT)” the “recombinant barcode read abundance (log10)” value was 0.41. With “GAGCCCAGCTGGGTTCTAACCTGTTGCCTGC [GAGCCCACTAG_LTGcore_GC_RTGcore_GC] (site GAGCCCACTAG) (LTG core: GC, RTG core: GC)” the “recombinant barcode read abundance (log10)” value was 0.0674. For “GAGCCCAGGTGGGTTCTAACCTGTTGCCTAG [GAGCCCACTAG_LTGcore_GG_RTGcore_CT] (site GAGCCCACTAG) (LTG core: GG, RTG core: CT)”, the “recombinant barcode read abundance (log10)” value was 0.181. For “GAGCCCAGTTGGGTTCTAACCTGTTGCCTAG [GAGCCCACTAG_LTGcore_GT_RTGcore_CT] (site GAGCCCACTAG) (LTG core: GT, RTG core: CT)”, the “recombinant barcode read abundance (log10)” value was 0.0941. In the case of “GAGCCCATATGGGTTCTAACCTGTTGCCTTA [GAGCCCACTAG_LTGcore_TA_RTGcore_TA] (site GAGCCCACTAG) (LTG core: TA, RTG core: TA)”, the “recombinant barcode read abundance (log10)” value is reported as 0.338. With “GAGCCCATCTGGGTTCTAACCTGTTGCCTAG [GAGCCCACTAG_LTGcore_TC_RTGcore_CT] (site GAGCCCACTAG) (LTG core: TC, RTG core: CT)” the “recombinant barcode read abundance (log10)” value was 0.102. With “GAGCCCATTTGGGTTCTAACCTGTTGCCTAA [GAGCCCACTAG_LTGcore_TT_RTGcore_TT] (site GAGCCCACTAG) (LTG core: TT, RTG core: TT)” the “recombinant barcode read abundance (log10)” value was 0.178. In the case of “GAGGCCTCCTGGGTTCTAACCTGTTGCCAGG [GAGGCCTCTTG_LTGcore_CC_RTGcore_CC] (site GAGGCCTCTTG) (LTG core: CC, RTG core: CC)”, the “recombinant barcode read abundance (log10)” value is reported as 0.215. In the case of “GAGGCCTCTTGGGTTCTAACCTGTTGCCAAA [GAGGCCTCTTG_LTGcore_CT_RTGcore_TT] (site GAGGCCTCTTG) (LTG core: CT, RTG core: TT)”, the “recombinant barcode read abundance (log10)” value is reported as 0.822. With “GAGGCCTCTTGGGTTCTAACCTGTTGCCAAT [GAGGCCTCTTG_LTGcore_CT_RTGcore_AT] (site GAGGCCTCTTG) (LTG core: CT, RTG core: AT)” the “recombinant barcode read abundance (log10)” value was 0. For “GAGGCCTCTTGGGTTCTAACCTGTTGCCACC [GAGGCCTCTTG_LTGcore_CT_RTGcore_GG] (site GAGGCCTCTTG) (LTG core: CT, RTG core: GG)”, the “recombinant barcode read abundance (log10)” value was 0.236. For “GAGGCCTCTTGGGTTCTAACCTGTTGCCACG [GAGGCCTCTTG_LTGcore_CT_RTGcore_CG] (site GAGGCCTCTTG) (LTG core: CT, RTG core: CG)”, the “recombinant barcode read abundance (log10)” value was 0.128. With “GAGGCCTCTTGGGTTCTAACCTGTTGCCATT [GAGGCCTCTTG_LTGcore_CT_RTGcore_AA] (site GAGGCCTCTTG) (LTG core: CT, RTG core: AA)” the “recombinant barcode read abundance (log10)” value was 0.0215. For “GAGGCCTTTTGGGTTCTAACCTGTTGCCAAG [GAGGCCTCTTG_LTGcore_TT_RTGcore_CT] (site GAGGCCTCTTG) (LTG core: TT, RTG core: CT)”, the “recombinant barcode read abundance (log10)” value was 0.0682. In the case of “GAGTCCAAGTGGGTTCTAACCTGTTGCGTCT [GAGTCCACTAC_LTGcore_AG_RTGcore_AG] (site GAGTCCACTAC) (LTG core: AG, RTG core: AG)”, the “recombinant barcode read abundance (log10)” value is reported as 0.0337. In the case of “GAGTCCACCTGGGTTCTAACCTGTTGCGTAG [GAGTCCACTAC_LTGcore_CC_RTGcore_CT] (site GAGTCCACTAC) (LTG core: CC, RTG core: CT)”, the “recombinant barcode read abundance (log10)” value is reported as 0.172. With “GAGTCCACGTGGGTTCTAACCTGTTGCGTCG [GAGTCCACTAC_LTGcore_CG_RTGcore_CG] (site GAGTCCACTAC) (LTG core: CG, RTG core: CG)” the “recombinant barcode read abundance (log10)” value was 0.405. With “GAGTCCACTTGGGTTCTAACCTGTTGCGTCT [GAGTCCACTAC_LTGcore_CT_RTGcore_AG] (site GAGTCCACTAC) (LTG core: CT, RTG core: AG)” the “recombinant barcode read abundance (log10)” value was 0. With “GAGTCCACTTGGGTTCTAACCTGTTGCGTGT [GAGTCCACTAC_LTGcore_CT_RTGcore_AC] (site GAGTCCACTAC) (LTG core: CT, RTG core: AC)” the “recombinant barcode read abundance (log10)” value was 0.0606. In the case of “GAGTCCACTTGGGTTCTAACCTGTTGCGTTG [GAGTCCACTAC_LTGcore_CT_RTGcore_CA] (site GAGTCCACTAC) (LTG core: CT, RTG core: CA)”, the “recombinant barcode read abundance (log10)” value is reported as 0. With “GAGTCCAGATGGGTTCTAACCTGTTGCGTAG [GAGTCCACTAC_LTGcore_GA_RTGcore_CT] (site GAGTCCACTAC) (LTG core: GA, RTG core: CT)” the “recombinant barcode read abundance (log10)” value was 0.294. In the case of “GAGTCCAGCTGGGTTCTAACCTGTTGCGTGC [GAGTCCACTAC_LTGcore_GC_RTGcore_GC] (site GAGTCCACTAC) (LTG core: GC, RTG core: GC)”, the “recombinant barcode read abundance (log10)” value is reported as 0.174. For “GAGTCCAGGTGGGTTCTAACCTGTTGCGTCC [GAGTCCACTAC_LTGcore_GG_RTGcore_GG] (site GAGTCCACTAC) (LTG core: GG, RTG core: GG)”, the “recombinant barcode read abundance (log10)” value was 0.0822. In the case of “GAGTCCATATGGGTTCTAACCTGTTGCGTTA [GAGTCCACTAC_LTGcore_TA_RTGcore_TA] (site GAGTCCACTAC) (LTG core: TA, RTG core: TA)”, the “recombinant barcode read abundance (log10)” value is reported as 0.0207. With “GAGTCCATCTGGGTTCTAACCTGTTGCGTAG [GAGTCCACTAC_LTGcore_TC_RTGcore_CT] (site GAGTCCACTAC) (LTG core: TC, RTG core: CT)” the “recombinant barcode read abundance (log10)” value was 0.0202. With “GAGTCCATCTGGGTTCTAACCTGTTGCGTGA [GAGTCCACTAC_LTGcore_TC_RTGcore_TC] (site GAGTCCACTAC) (LTG core: TC, RTG core: TC)” the “recombinant barcode read abundance (log10)” value was 0.0654.
